In publication PMC8523698, “Preclinical characterization of an intravenous coronavirus 3CL protease inhibitor for the potential treatment of COVID19” (Nature Communications, 2021):
“And” between values parts separate entries of the source, which are not always exact repeats. Equal entries are not always repeated. Where two headings read alike, the source gives them in different places.

Experiments:
[1] = target: NL63-CoV 3CL^pro (Human coronavirus NL63, UniProt P0C6X5); format: biochemical
[2] = target: PEDV 3CL^pro (Porcine epidemic diarrhea virus, UniProt P0C6Y4); format: biochemical
Sequence of PEDV 3CL^pro (P0C6Y4 2998-3299): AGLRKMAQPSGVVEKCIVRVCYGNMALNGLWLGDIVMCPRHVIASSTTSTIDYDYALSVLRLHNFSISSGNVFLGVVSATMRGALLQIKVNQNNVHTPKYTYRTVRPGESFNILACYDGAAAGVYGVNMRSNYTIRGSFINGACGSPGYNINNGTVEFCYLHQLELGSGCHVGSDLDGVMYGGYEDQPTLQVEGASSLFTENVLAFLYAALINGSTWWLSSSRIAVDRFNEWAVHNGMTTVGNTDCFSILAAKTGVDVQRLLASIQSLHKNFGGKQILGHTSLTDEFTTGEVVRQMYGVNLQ

[3] = target: FIPV 3CL^pro (Feline coronavirus, UniProt Q98VG9); format: biochemical
Sequence of FIPV 3CL^pro (Q98VG9 2904-3205): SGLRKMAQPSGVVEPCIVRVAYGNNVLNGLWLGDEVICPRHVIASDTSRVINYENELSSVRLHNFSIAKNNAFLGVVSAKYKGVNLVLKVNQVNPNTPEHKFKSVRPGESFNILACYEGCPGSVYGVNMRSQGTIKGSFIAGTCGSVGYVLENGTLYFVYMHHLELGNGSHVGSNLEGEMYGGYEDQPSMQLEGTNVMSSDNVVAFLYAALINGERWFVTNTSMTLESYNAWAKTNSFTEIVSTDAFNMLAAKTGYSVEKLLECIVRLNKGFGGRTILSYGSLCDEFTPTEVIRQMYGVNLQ

[4] = target: MHV-CoV 3CL^pro (Murine coronavirus, UniProt P0C6X9); format: biochemical
Sequence of MHV-CoV 3CL^pro (P0C6X9 3334-3635): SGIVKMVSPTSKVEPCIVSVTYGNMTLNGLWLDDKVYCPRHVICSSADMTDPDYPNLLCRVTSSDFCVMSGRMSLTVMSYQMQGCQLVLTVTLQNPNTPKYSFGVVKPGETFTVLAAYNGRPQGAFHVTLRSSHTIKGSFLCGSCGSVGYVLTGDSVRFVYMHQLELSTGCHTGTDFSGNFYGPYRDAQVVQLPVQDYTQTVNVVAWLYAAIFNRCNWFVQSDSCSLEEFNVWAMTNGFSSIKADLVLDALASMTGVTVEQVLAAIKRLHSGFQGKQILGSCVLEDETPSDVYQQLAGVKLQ

[5] = target: OC43-CoV 3CL^pro (Human coronavirus OC43, UniProt P0C6X6); format: biochemical
Sequence of OC43-CoV 3CL^pro (P0C6X6 3247-3549): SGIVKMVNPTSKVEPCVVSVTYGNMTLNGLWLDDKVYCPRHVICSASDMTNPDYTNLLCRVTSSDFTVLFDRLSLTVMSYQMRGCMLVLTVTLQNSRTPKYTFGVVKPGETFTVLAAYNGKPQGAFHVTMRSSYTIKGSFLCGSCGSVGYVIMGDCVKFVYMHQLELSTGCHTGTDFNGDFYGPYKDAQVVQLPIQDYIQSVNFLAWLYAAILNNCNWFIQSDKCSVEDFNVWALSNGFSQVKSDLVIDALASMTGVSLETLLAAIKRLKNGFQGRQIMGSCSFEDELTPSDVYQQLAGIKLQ

[6] = target: IBV-CoV 3CL^pro (Avian infectious bronchitis virus, UniProt P0C6Y1); assay: biochemical; conditions: for Initial Velocity: triplicate, listed as Compound F2
Sequence of IBV-CoV 3CL^pro (P0C6Y1 2780-3086): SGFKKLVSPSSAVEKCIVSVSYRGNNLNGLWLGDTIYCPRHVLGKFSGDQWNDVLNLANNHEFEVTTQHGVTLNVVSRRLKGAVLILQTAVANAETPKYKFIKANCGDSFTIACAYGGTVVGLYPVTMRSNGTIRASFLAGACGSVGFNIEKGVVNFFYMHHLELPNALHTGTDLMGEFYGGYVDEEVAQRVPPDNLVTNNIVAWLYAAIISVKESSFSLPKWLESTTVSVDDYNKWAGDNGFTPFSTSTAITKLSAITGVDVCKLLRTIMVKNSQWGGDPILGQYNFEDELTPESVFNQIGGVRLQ

[7] = target: HIV-1 protease (Human immunodeficiency virus type 1 group M subtype B, UniProt P04585); assay: Mammalian protease panel; format: biochemical
Method: (§1) The respective protease in assay buffer (50 mM Tris with 100 mM sodium chloride and Brij 35 at pH = 8 except for cathepsin D pH = 3.5 and HIV pH = 5.5) was added to assay ready compound plates. The enzymatic reaction was initiated with the addition of indicated substrate in assay buffer. Initial rates were measured by following the fluorescence of the cleaved substrate (Ex/Em 355/460 […]) using a Spectramax (Molecular Devices) fluorescence plate reader in the kinetic format.
(§2) IC50 values were generated based on a four-parameter logistic fit model using ActivityBase software (IDBS). Percent activity values were calculated based on control wells containing no compound (100% activity) and wells containing a control compound (0% activity).

[8] = target: Human Cathepsin B (Homo sapiens, UniProt P07858); assay: Mammalian protease panel; format: biochemical
Method: as §1, §2

[9] = target: Human Elastase (Homo sapiens, UniProt P08246); assay: Mammalian protease panel; format: biochemical
Sequence of Human Elastase (P08246 30-247 limits assumed): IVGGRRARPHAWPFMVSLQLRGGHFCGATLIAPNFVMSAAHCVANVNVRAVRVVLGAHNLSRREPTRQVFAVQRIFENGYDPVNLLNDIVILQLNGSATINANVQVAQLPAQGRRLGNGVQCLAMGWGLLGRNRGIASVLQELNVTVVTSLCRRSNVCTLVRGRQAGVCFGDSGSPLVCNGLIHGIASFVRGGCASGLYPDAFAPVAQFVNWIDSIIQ
Method: as §1, §2

[10] = system: Human Chymotrypsin; assay: Mammalian protease panel; format: biochemical
[11] = target: Human Caspase 2 (Homo sapiens, UniProt P42575); assay: Mammalian protease panel; format: biochemical
Sequence of Human Caspase 2 (P42575 170-325 limits assumed): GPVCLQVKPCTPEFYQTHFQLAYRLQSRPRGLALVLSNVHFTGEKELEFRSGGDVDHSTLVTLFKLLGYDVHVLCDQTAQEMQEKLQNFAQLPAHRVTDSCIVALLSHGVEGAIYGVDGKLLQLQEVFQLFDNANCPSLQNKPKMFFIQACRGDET
Sequence of Human Caspase 2 (P42575 348-452 limits assumed): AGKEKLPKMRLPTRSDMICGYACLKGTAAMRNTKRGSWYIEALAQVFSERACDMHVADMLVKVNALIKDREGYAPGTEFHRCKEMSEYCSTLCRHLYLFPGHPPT

[12] = system: VeroE6-EGFP cells
[13] = system: SARS-CoV-2; conditions: cited from earlier work
[14] = system: SARS-CoV-2; design: method as in earlier work; conditions: preliminary data; read-out: unbound EC90; cited from earlier work
[15] = in vitro
[16] = PBPK modeling (Simcyp) of DDI with itraconazole
[17] = target: T1, CYP3A4/5 (Homo sapiens, UniProt P08684); assay: Reversible CYP inhibition in human liver microsomes
T1 sequence (P08684 whole entry): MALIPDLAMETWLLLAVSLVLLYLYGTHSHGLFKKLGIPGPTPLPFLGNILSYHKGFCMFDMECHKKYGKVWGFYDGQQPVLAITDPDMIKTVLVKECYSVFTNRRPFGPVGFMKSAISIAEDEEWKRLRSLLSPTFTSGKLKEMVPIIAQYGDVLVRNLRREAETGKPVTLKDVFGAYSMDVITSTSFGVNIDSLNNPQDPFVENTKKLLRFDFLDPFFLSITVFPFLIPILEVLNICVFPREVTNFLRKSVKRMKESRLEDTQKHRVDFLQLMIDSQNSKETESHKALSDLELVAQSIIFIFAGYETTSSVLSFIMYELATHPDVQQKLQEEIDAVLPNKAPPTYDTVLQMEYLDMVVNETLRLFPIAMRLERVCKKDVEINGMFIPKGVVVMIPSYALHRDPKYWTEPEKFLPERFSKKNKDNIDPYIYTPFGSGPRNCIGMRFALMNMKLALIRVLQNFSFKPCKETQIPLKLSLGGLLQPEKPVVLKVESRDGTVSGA

[18] = 300 mg/kg dose group
[19] = target: T1, CYP3A4/5; assay: Time-dependent inhibition of CYP enzymes in human liver microsomes; conditions: CYP3A4; Simcyp interaction input
[20] = Metabolic stability in pooled human liver microsomes (intrinsic clearance); conditions: both, pH 7.5
[21] = Rat 4-day continuous intravenous infusion exploratory non-GLP toxicity study
[22] = In vitro blood to plasma ratio; format: in vitro ADME; conditions: for Plasma concentration (Cp) / Whole blood concentration (Cb): human blood, substrate 1 µM
[23] = Rat 24-h continuous intravenous infusion GLP toxicity study; format: in vivo, Sprague-Dawley rats; conditions: in vivo
[24] = Dog pharmacokinetic study; conditions: for clearance / half-life / Vd: male, Beagle, dog, plasma, iv; for Vd: Vdss
[25] = Liver S9 binding by equilibrium dialysis; conditions: for recovery at 6 h: human liver S9, %Recovery
[26] = Metabolic stability and enzyme kinetics in liver S9 (conversion to PF-00835231)

Sequence of NL63-CoV 3CL^pro (P0C6X5 2940-3242): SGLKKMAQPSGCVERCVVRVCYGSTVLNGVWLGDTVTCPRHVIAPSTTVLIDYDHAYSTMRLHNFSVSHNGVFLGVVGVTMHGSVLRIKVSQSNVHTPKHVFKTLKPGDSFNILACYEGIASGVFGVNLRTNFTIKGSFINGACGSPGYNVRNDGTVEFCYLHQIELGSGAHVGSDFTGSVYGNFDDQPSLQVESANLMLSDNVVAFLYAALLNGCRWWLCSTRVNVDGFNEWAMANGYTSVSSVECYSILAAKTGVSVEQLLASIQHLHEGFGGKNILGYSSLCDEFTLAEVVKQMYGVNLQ

COc1cccc2[nH]c(C(=O)N[C@@H](CC(C)C)C(=O)N[C@@H](C[C@@H]3CCNC3=O)C(=O)CO)cc12 [PF-00835231]
Ki [1]: 0.00077 ± 0.00052 µM | Ki [2]: 0.0003 ± 0.00011 µM | Ki [3]: 0.00012 ± 0.0001 µM | Ki [4]: 0.0012 ± 0.0009 µM | Ki [5]: 0.00051 ± 0.00012 µM | Ki [6]: 0.004 ± 0.00037 µM | Initial Velocity ([6]; [Compound F2] 1.95312 nM): 0.9151 and 0.9223 and 0.9303 | Initial Velocity ([6]; [Compound F2] 3.90625 nM): 0.8719 and 0.9093 and 0.9026 | Initial Velocity ([6]; [Compound F2] 7.8125 nM): 0.7237 and 0.7704 and 0.7494 | Initial Velocity ([6]; [Compound F2] 31.25 nM): 0.2801 and 0.2824 and 0.2905 | Initial Velocity ([6]; [Compound F2] 62.5 nM): 0.09406 and 0.0968 and 0.1078 | Initial Velocity ([6]; [Compound F2] 250 nM): 0.02135 and 0.01561 and 0.01396 | IC50 [7]: > 11 µM | IC50 [8]: 6 µM and 6.1 µM | IC50 [9]: > 33 µM | IC50 [10]: > 100 µM | IC50 [11]: > 33 µM | CC50 ([12]; African green monkey): > 50 µM | CC50 ([12]; monkey): > 50 µM | EC50 ([13]; P-gp inhibitor 0 uM): 0.193 µM | EC50 ([13]; P-gp inhibitor 1 uM): 0.178 µM | EC90 ([13]; human lung carcinoma cells): 0.44 µM | EC90 [14]: < 0.5 µM | CC50 ([15]; African green monkey, CC50): > 100 µM | CC50 ([15]; monkey, CC50 GeoMean (95% CI)): > 100 µM | fm,CYP3A ([16]; Predicted from in vitro phenotyping data): 0.76 | CLint ([16]; Simcyp elimination input, Recombinant, CYP3A4, Pathway 1): 0.147 µL/min/pmol | CL renal ([16]; human): 50 mL/min | clearance ([16]; human, plasma): 417 mL/min | Ki [17]: 108 µM | Cmin unbound exposure [18]: 1700 nM | MBI Kapp [19]: 163.000 µM | microsomal CLint at 1 µM ([20]; liver microsomes): 14 µL/min/mg | microsomal CLint at 1 µM ([20]; pooled human liver microsomes): 7.5 µL/min/mg | tolerated dose (highest feasible dose tested) ([21]; male rats, 4 days continuous IV infusion): 246 mg/kg/day | cholesterol vs controls ([21]; non-adverse): 1.3 x | mean triglycerides vs controls ([21]; non-adverse): 1.9-3.6 x | phosphorus vs controls ([21]; non-adverse): 1.1 x

COc1cccc2[nH]c(C(=O)N[C@@H](CC(C)C)C(=O)N[C@@H](C[C@@H]3CCNC3=O)C(=O)COP(=O)(O)O)cc12 [PF-07304814]
Measured blood partitioning / Human blood partitioning [22]: 0.6 | Plasma concentration (Cp) ([22]; Mean): 1970 nM | Whole blood concentration (Cb) ([22]; Mean): 1.08 µM | Plasma concentration (Cp) ([22]; individual replicates): 2010 nM and 2000 nM and 1900 nM and 1950 nM | Whole blood concentration (Cb) ([22]; individual replicates): 1.11 µM and 1.06 µM and 1.1 µM | NOAEL at 24 h ([23]; both sexes, Sprague-Dawley, 24 h continuous IV infusion, read-out: no observed adverse effect level (NOAEL)): 1000 mg/kg | toxicity findings [23]: no test article related findings | %unchanged in urine ([24]; dog IV, PF-07304814 […], PF-00835231 1.0mg/kg): < 0.1% | Total Concn, Mean Data ([24]; dog plasma, PF-07304814 prodrug dosed […] intravenous, time 8 h, mean, BLQ=0.1ng/mL): BLQ | Urine Concn ([24]; dog urine 4-8h, PF-07304814 prodrug dosed […] intravenous, individual dogs, BLQ=1ng/mL for urine): BLQ | clearance ([24]; CLp, dog IV (n=2, range), PF-07304814 […], PF-00835231 1.0mg/kg): 517 mL/min/kg | half-life ([24]; Terminal T1/2, dog IV (n=2, range), PF-07304814 […], PF-00835231 1.0mg/kg): 30 min | Vd ([24]; dog IV (n=2, range), PF-07304814 […], PF-00835231 1.0mg/kg): 9.3 L/kg | clearance ([24]; […], Clearance, Mean Data, PF-07304814 prodrug dosed […] intravenous, mean): 517 mL/min/kg | half-life ([24]; […], Half life, Mean Data, PF-07304814 prodrug dosed […] intravenous, mean): 30.6 min | Vd ([24]; […], Mean Data, PF-07304814 prodrug dosed […] intravenous, mean): 9.3 L/kg | Hum liver S9 binding ([25]; clearance input): 0.89 | %Stability ([25]; human liver S9 matrix, n=4): 98% | recovery at 6 h ([25]; human, human liver S9 binding, MEAN, n 4): 94% | recovery at 6 h ([25]; human, human liver S9 binding, individual replicates): 95% | fraction unbound at 6 h ([25]; human, human liver S9, fu MEAN, human liver S9, mean, n=4): 0.89 | fraction unbound at 6 h ([25]; human, human liver S9, fu, human liver S9, individual replicates 1-4): 0.902 | fraction unbound at 6 h ([25]; human, human liver S9, fu, human liver S9 binding, MEAN, n 4): 0.89 | fraction unbound at 6 h ([25]; human, human liver S9, fu, human liver S9 binding, individual replicates): 0.867 | fraction unbound at 6 h, 2 µM ([25]; human, liver S9, Unbound fraction fu (%CV), human liver S9, 0.03mg/mL protein, 2 µM substrate): 0.89 | %Recovery, human liver S9 binding ([25]; individual replicates): 88% and 99% | fu, human liver S9 binding ([25]; individual replicates): 0.888 | %Stability, human liver S9 binding ([25]; mean, n 4): 98% | Vmax ([26]; Cyno, best-fit, Two enzyme: MM + Unsaturable): 1186 pmol/min/mg | microsomal CLint ([26]; cynomolgus monkey, liver S9, pH 7.5, CL, Cyno, unsaturable component, best-fit): 3.06 µL/min/mg | microsomal CLint ([26]; cynomolgus monkey, liver S9, pH 7.5, CLint total, Cyno, (vmax / KM) + CL): 150 µL/min/mg | microsomal CLint ([26]; monkey, liver S9, pH 7.5, CLint,2, low affinity kinetic component): 3.06 µL/min/mg | microsomal CLint ([26]; monkey, liver S9, pH 7.5, CLint,app): 150 µL/min/mg | microsomal CLint ([26]; monkey, liver S9, pH 7.5, CLintu (unbound CLint)): 168 µL/min/mg | Km at 20 min ([26]; monkey, monkey liver S9, pH 7.5): 8.1 µM
